In brackets after ≈: the same amount, converted by molar mass. Read-outs that look alike come from different tables or passages of the source.
Assays:
[1] = tested on: Adult normal human epidermal keratinocytes (NHEK); experiment: Human epidermal keratinocyte viability (GI50) assay; type: cell-based; conditions: 120 h, read-out: Keratinocyte GI50
Procedure: Adult normal human epidermal keratinocytes (NHEK) were purchased from Lonza (catalog #00192627, Basel, Switzerland) and cultured in keratinocyte growth medium (Lonza KGM-Gold Bullet Kit) containing growth supplements (Lonza Reagent Pack) at 5% CO2 (37 °C). The cell viability assay was performed using the CellTiter-Glo Luminescent Cell Viability Assay protocol from Promega (www.promega.com, Fitchburg, WI, USA). Briefly, NHEK were treated with test compounds in keratinocyte growth medium in 96-well plates (Thermo Scientific Nunclon Delta, Waltham, MA, USA). Treated cells were incubated for 5 days at 5% CO2 (37 °C). Promega CellTiter-Glo Reagent was added and plates were shaken on an orbital shaker for […]. Next, well contents (100 μL) from each well were transferred into opaque 96-well plates (PerkinElmer OptiPlate-96) and luminescence measured by a microplate reader (Tecan Safire2).

mouse = tested on: mouse; parameters: method as in PMID 12724731; conditions: cited from earlier work
VISA (ATCC-700699) = experiment: Minimum inhibitory concentration (MIC) assay, VISA; type: cell-based, meticillin-resistant Staphylococcus aureus; conditions: Staphylococcus aureus, ATCC 700699 / MRSA / VISA, read-out: MRSA MICs VISA
Excerpt: (§1) The 1163 FDA-approved drugs were purchased as a library set from Selleckchem (catalog #L1300). For MIC assays, Ivacaftor, Mupirocin and Tigecycline were purchased from Santa Cruz Biotechnology (Dallas, TX, USA). All other test compounds were purchased from Sigma-Aldrich (St. Louis, MO, USA) and were used without further purification. MRSA strains USA 100 (ATCCBAA-1681), USA 300 (ATCC-BAA-1680), USA400 (ATCC-BAA-1707) and VISA (ATCC-700699) were purchased from ATCC (Manassas, VA, USA).
(§2) The MICs of antibiotics and peptides were determined using the microdilution method from the Clinical and Laboratory Standards Institute (CLSI) guidelines. Briefly, bacteria were grown fresh from frozen stock in MH2 agar at 37 °C. After an overnight incubation, five MRSA colonies were selected to grow in cation-adjusted MH2 broth (BD Biosciences catalog #212322) in a shaker incubator at 37 °C, 220 RPM. Cells were grown to an optical density (OD600) of 0.15–0.16 using a Microplate Spectrophotometer (Molecular Devices Spectra Max Plus), which corresponds to 1–2 × 10^8 CFU/mL. Test compounds were constituted into 4 mM DMSO stock solutions and then subjected to two-fold serial dilution in a 96-well plate with concentrations ranging from 100 to 0.2 μM in duplicates. The amount of 50 μL of microbial culture containing ~1–2 × 10^6 CFU/mL of microbes in the respective broths was introduced into each well containing 50 μL of compound. After an overnight incubation at 35 °C, OD600 measurements were conducted using the Microplate Spectrophotometer. The MIC was defined as the lowest drug concentration (μM) required to inhibit microbial growth.

[2] = tested on: MRSA USA 300 (ATCC-BAA-1680); experiment: Minimum inhibitory concentration (MIC) assay, MRSA USA 300; type: cell-based, meticillin-resistant Staphylococcus aureus; conditions: Staphylococcus aureus, read-out: MRSA MICs USA 300
Excerpt: as §1, §2

[3] = tested on: MRSA USA400 (ATCC-BAA-1707); experiment: Minimum inhibitory concentration (MIC) assay, MRSA USA 400; type: cell-based, meticillin-resistant Staphylococcus aureus; conditions: Staphylococcus aureus, read-out: MRSA MICs USA 400
Excerpt: as §1, §2

[4] = tested on: MRSA USA 100 (ATCCBAA-1681); experiment: Minimum inhibitory concentration (MIC) assay, MRSA USA 100; type: cell-based, meticillin-resistant Staphylococcus aureus; conditions: Staphylococcus aureus, read-out: MRSA MICs USA 100
Excerpt: as §1, §2

[5] = intravenously administered; cited from earlier work
MRSA USA100 = experiment: Single-point 10 μM bacteria growth inhibition assay; type: cell-based, meticillin-resistant Staphylococcus aureus; conditions: MRSA USA 100
Excerpt: as §1
MRSA USA100 was grown from frozen glycerol stock on Mueller Hinton 2 (MH2) agar overnight at 37 °C. Five colonies were selected from the agar plate and grown in cation-adjusted MH2 broth (BD Biosciences catalog #212322, Franklin Lakes, NJ, USA) in a shaker incubator at 37 °C, 220 RPM. Cells were grown to 1–2 × 10^8 CFU/mL and diluted 1:100 in MH2 broth. An amount of 50 μL of test compounds pre-dissolved in MH2 broth at 20 μM concentrations were added in duplicates into each well in a 96-well plate. A total of 50 μL of bacteria inoculums containing ~1 × 10^6 CFU/mL of bacteria in MH2 broth was introduced into each well containing the test compounds. The final DMSO concentration was kept at 2.5% in each well. After an overnight incubation at 35 °C, optical density (OD600) of each well was determined using the Microplate Spectrophotometer (Molecular Devices Spectra Max Plus, Sunnyvale, CA, USA).

[6] = tested on: panel of clinical MRSA strains (USA 100, USA 300, USA 400 and VISA); experiment: MIC assay against panel of clinical MRSA strains; type: cell-based, meticillin-resistant Staphylococcus aureus; conditions: Staphylococcus aureus, across USA 100, USA 300, USA 400 and VISA
Excerpt: as §1, §2

MRSA USA300 [7] = experiment: Bactericidal/static determination assay; type: cell-based, meticillin-resistant Staphylococcus aureus; conditions: MRSA USA300, 4× MIC; bactericidal when ≥99.9% cell death
Procedure: After the MICs of test compounds were determined using the microdilution method described in Section 2.2, the entire well contents (100 μL) corresponding to 4× the MIC of the antibiotic or peptide were transferred and spread on fresh sterile MH2 agar plates. The plates were incubated overnight at 37 °C and the number of colony forming units (CFU) was determined the next day. A compound was classified as bactericidal when ≥99.9% cell death was observed.

MRSA USA300 [8] = experiment: Time-kill assay; type: cell-based, meticillin-resistant Staphylococcus aureus; conditions: MRSA USA300, 4× MIC, within 6 h
Procedure: Bacteria cells were grown to 1 × 10^8 CFU/mL in MH2 broth and then diluted […] into 5 mL aliquots to a density of 1 × 10^6 CFU/mL in a flask. Test compounds pre-dissolved in DMSO corresponding to 4× their MICs were then added into each flask with a final DMSO concentration of 2.5% v/v. The negative control was 2.5% DMSO. The flasks were incubated in a shaking incubator (220 RPM) at 37 °C. Samples (100 μL) were taken hourly from the flasks between t = 0 and t = 6 h. The samples were serially diluted in MH2 broth before plating on sterile MH2 agar and incubated overnight at 37 °C. A bacteria count for each plate was conducted the next day. A graph of Log CFU/mL was plotted against time to obtain the time-kill graph.

rats = conditions: rat, cited from earlier work
[9] = tested on: human carcinoma cell lines; conditions: cited from earlier work
[10] = cited from earlier work
[11] = 5 days incubation, CellTiter-Glo
[12] = printed conversion of μM values

| MIC (VISA (ATCC-700699); microdilution, overnight 35 °C) [µM] | MIC ([2]; microdilution, overnight 35 °C) [µM] | MIC ([3]; microdilution, overnight 35 °C) [µM] | MIC ([4]; microdilution, overnight 35 °C) [µM] | SMILES | GI50 [1, 11] [µM] | Antibacterial activity in single-point screen (MRSA USA100) | MIC [6] [µM] | further results |
| --- | --- | --- | --- | --- | --- | --- | --- | --- |
| > 100 | 0.2 (≈ 0.085 µg/mL) | 0.2 (≈ 0.085 µg/mL) | > 100 | CCC[C@@H]1C[C@@H](C(=O)N[C@@H]([C@H]2O[C@H](SC)[C@H](O)[C@@H](O)[C@H]2O)[C@H](C)Cl)N(C)C1 [Clindamycin] | > 50 |  |  |  |
| 12.5 (≈ 5.56 µg/mL) | 0.78 (≈ 0.347 µg/mL) | 1.56 (≈ 0.693 µg/mL) | 0.39 (≈ 0.173 µg/mL) | C[C@H]1c2cccc(O)c2C(=O)C2=C(O)[C@]3(O)C(=O)C(C(N)=O)=C(O)[C@@H](N(C)C)[C@@H]3[C@@H](O)[C@@H]21 [Doxycycline] | 36.9 ± 3.7 |  |  |  |
| 3.13 (≈ 1.06 µg/mL) | 6.25 (≈ 2.11 µg/mL) | 6.25 (≈ 2.11 µg/mL) | 6.25 (≈ 2.11 µg/mL) | CC(=O)NC[C@H]1CN(c2ccc(N3CCOCC3)c(F)c2)C(=O)O1 [Linezolid] | > 100 |  |  | Bactericidal/static classification (MRSA USA300 [7]): bacteriostatic; log reduction in bacteria count (MRSA USA300 [8]): less than a log reduction |
| > 100 | 0.39 (≈ 0.195 µg/mL) | 0.39 (≈ 0.195 µg/mL) | 0.78 (≈ 0.39 µg/mL) | C/C(=C\C(=O)OCCCCCCCCC(=O)O)C[C@@H]1OC[C@H](C[C@@H]2O[C@H]2[C@@H](C)[C@H](C)O)[C@@H](O)[C@H]1O [Mupirocin] | > 50 |  |  |  |
| 3.13 (≈ 1.64 µg/mL) | 3.13 (≈ 1.64 µg/mL) | 3.13 (≈ 1.64 µg/mL) | 3.13 (≈ 1.64 µg/mL) | OC1(c2ccc(Cl)c(C(F)(F)F)c2)CCN(CCCC(c2ccc(F)cc2)c2ccc(F)cc2)CC1 [Penfluridol] | 2.1 ± 0.6 | either bacteriostatic or bactericidal | 3.13 |  |
| 1.56 (≈ 0.914 µg/mL) | 0.78 (≈ 0.457 µg/mL) | 0.78 (≈ 0.457 µg/mL) | 0.78 (≈ 0.457 µg/mL) | CN(C)c1cc(NC(=O)CNC(C)(C)C)c(O)c2c1C[C@H]1C[C@H]3[C@H](N(C)C)C(O)=C(C(N)=O)C(=O)[C@@]3(O)C(O)=C1C2=O [Tigecycline] | 20.6 ± 4.2 |  |  |  |
|  |  |  |  | CN[C@H](CC(C)C)C(=O)N[C@H]1C(=O)N[C@@H](CC(N)=O)C(=O)N[C@H]2C(=O)N[C@H]3C(=O)N[C@H](C(=O)N[C@H](C(=O)O)c4cc(O)cc(O)c4-c4cc3ccc4O)[C@H](O)c3ccc(c(Cl)c3)Oc3cc2cc(c3O[C@@H]2O[C@H](CO)[C@@H](O)[C@H](O)[C@H]2O[C@H]2C[C@](C)(N)[C@H](O)[C@H](C)O2)Oc2ccc(cc2Cl)[C@H]1O [Vancomycin] |  |  |  | GI50 [1]: > 100 µM; MIC (VISA (ATCC-700699)): 6.25 µM (≈ 9.06 µg/mL); MIC [2]: 0.78 µM (≈ 1.13 µg/mL); MIC [3]: 0.78 µM (≈ 1.13 µg/mL); MIC [4]: 0.78 µM (≈ 1.13 µg/mL) |

| SMILES | MIC (VISA (ATCC-700699); microdilution, overnight 35 °C) [µM] | MIC ([2]; microdilution, overnight 35 °C) [µM] | MIC ([3]; microdilution, overnight 35 °C) [µM] | MIC ([4]; microdilution, overnight 35 °C) [µM] | GI50 [1, 11] [µM] | Antibacterial activity in single-point screen (MRSA USA100) | MIC [6] [µM] | further results |
| --- | --- | --- | --- | --- | --- | --- | --- | --- |
| O=c1[nH]cc(F)c(=O)[nH]1 [5-fluorouracil, 5-Fluorouracil] | 6.25 (≈ 0.813 µg/mL) | 3.13 (≈ 0.407 µg/mL) | 3.13 (≈ 0.407 µg/mL) | 6.25 (≈ 0.813 µg/mL) | 33.3 ± 2.6 | either bacteriostatic or bactericidal | 3.13 to 6.25 | intravenous LD50 (mouse): 81 mg/kg; half-life [5]: 10 to 16 min |
| O=c1[nH]c(=O)n([C@H]2C[C@H](O)[C@@H](CO)O2)cc1F [Floxuridine] | 0.00625 (≈ 0.00154 µg/mL) | 0.00313 (≈ 0.000771 µg/mL) | 0.0125 (≈ 0.00308 µg/mL) | 0.025 (≈ 0.00615 µg/mL) | > 100 | either bacteriostatic or bactericidal | 0.00313 to 0.025 | Bactericidal/static classification (MRSA USA300 [7]): bactericidal; log reduction in bacteria count (MRSA USA300 [8]): ~2 log; intraperitoneal LD50 (rats; intraperitoneal): 1600 mg/kg; MIC [6, 12]: 0.77 to 6.16 ng/mL |
| Nc1ccn([C@@H]2O[C@H](CO)[C@@H](O)C2(F)F)c(=O)n1 [Gemcitabine] | 0.05 (≈ 0.0132 µg/mL) | 0.05 (≈ 0.0132 µg/mL) | 0.1 (≈ 0.0263 µg/mL) | 0.1 (≈ 0.0263 µg/mL) | 1.9 ± 0.2 | either bacteriostatic or bactericidal | 0.05 to 0.1 | intravenous LD50 (rats; intravenous): 236 mg/kg; MIC [6, 12]: 10 to 20 ng/mL |
| CC(C)(C)c1cc(C(C)(C)C)c(NC(=O)c2c[nH]c3ccccc3c2=O)cc1O [Ivacaftor] | 6.25 (≈ 2.45 µg/mL) | 6.25 (≈ 2.45 µg/mL) | 6.25 (≈ 2.45 µg/mL) | 6.25 (≈ 2.45 µg/mL) | 5.9 ± 0.5 | either bacteriostatic or bactericidal | 6.25 |  |
| O=C(Nc1ccc([N+](=O)[O-])cc1Cl)c1cc(Cl)ccc1O [Niclosamide] | 0.39 (≈ 0.128 µg/mL) | 0.39 (≈ 0.128 µg/mL) | 0.78 (≈ 0.255 µg/mL) | 0.78 (≈ 0.255 µg/mL) | < 0.2 | either bacteriostatic or bactericidal | 0.39 to 0.78 | cytotoxic concentrations towards human carcinoma cell lines [9]: sub-micromolar; oral LD50 [10]: > 1000 mg/kg |
